Several values for one entry are separate records, joined by “and”; a condition that tells them apart may be missing. Equal values may be shown once. Read-outs that look alike come from different tables or passages of the source.
Molecular target: T1, hGLUT8 (Homo sapiens, UniProt Q9NY64, E7R/E8R)
T1 construct: expressed in transfected cells; host or cells: HEK293 (HEK293-FLIP, native hGLUT1 knocked down)
T1 sequence (Q9NY64 1-477 E7R/E8R): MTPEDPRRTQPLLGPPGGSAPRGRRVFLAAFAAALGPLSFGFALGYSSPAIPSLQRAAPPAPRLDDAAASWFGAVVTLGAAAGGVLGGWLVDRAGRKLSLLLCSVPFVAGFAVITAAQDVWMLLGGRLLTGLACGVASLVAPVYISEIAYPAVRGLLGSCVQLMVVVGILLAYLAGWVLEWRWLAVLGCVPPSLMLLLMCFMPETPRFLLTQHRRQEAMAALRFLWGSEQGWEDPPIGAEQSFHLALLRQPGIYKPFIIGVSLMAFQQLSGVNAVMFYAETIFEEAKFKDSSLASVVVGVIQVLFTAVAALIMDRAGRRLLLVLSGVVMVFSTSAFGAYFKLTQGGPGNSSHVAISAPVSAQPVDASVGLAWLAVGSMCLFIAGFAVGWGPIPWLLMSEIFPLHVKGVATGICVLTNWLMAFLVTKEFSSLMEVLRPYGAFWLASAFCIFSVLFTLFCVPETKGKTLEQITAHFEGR
Experiment: [3H]-D-fructose uptake by HEK293 cells overexpressing hGLUT8
Assay type: cell-based
Source text: Generation of HEK293 cells overexpressing PfHT and human GLUTs 1–4 were described elsewhere. Briefly, HEK293 cells were transfected with pcDNA3.1 FLII12Pglu-7006 (Addgene), containing the fluorescence resonance energy transfer (FRET) glucose sensor (HEK293-FLIP) and PfHT, human GLUT1 (hGLUT1), hGLUT2, hGLUT3, hGLUT4, hGLUT5 or hGLUT8 using Optifect (Life Technologies) according to manufacturer’s specifications. To increase retention of GLUT8 at the plasma membrane, the dileucine sorting signal E^7E^8XXXLL was modified to R^7R^8XXXLL as described in [17]. Stable transfectants were selected for G418 and hygromycin resistance to select for FRET sensor and hexose transporter, respectively. HEK293-FLIP cells were also used to generate cells stably transfected with FLAG-tagged PfHT (FTPfHT). FLAG tag ([…]) followed by a triple glycine linker and a tobacco etch virus (TEV) protease site (ENLYFQS) followed by a triple glycine linker was added to the N-terminus of PfHT via PCR [18] using Phusion Hot Start II High-Fidelity DNA Polymerase (Fisher Scientific). Single clones were selected by comparing their abilities to transport glucose as assayed via FRET and radiolabeled hexose uptake. In all cell lines, except for HEK293 cells overexpressing hGLUT1 and hGLUT5, native hGLUT1 was knocked down using shRNA as described elsewhere. Transcript levels of the individual GLUTs expressed in each cell line are as described in [13, 15] and in S1 Fig.
Glucose uptake by P. falciparum was performed essentially as described. P. falciparum strain 3D7 was cultured in 100 mm tissue culture dishes (Techno Plastic Products) in a 2% suspension of human erythrocytes and RPMI 1640 medium until reaching > 7.5% parasitemia. Cells were pelleted via centrifugation and resuspended in RPMI 1640 medium. To determine the uptake of radiolabeled glucose into the parasite, parasites were isolated from infected erythrocytes by permeablization with saponin (0.05 w/v), followed by centrifugation, aspiration of supernatant and washing of the pellet 3X with saline solution (135 mM NaCl, 2 mM KCl, 25 mM HEPES, 0.2 mM glucose and 1 mM MgCl2; pH 7.1) to remove cellular debris. WU-1 or DMSO vehicle were added to 100 μl parasites (resuspended in saline) 5 min prior to the addition of 100 μl [^14C]2-DOG (0.2- μCi/ml final concentration). 2-DG uptake was stopped after 2 min by layering the entire reaction over 300 μl of an oil mixture (5:4 mix of dibutyl phthalate / dinonyl phthalate) in Eppendorf tubes and centrifuged at 15,850 × g for 2 mins. The ratio of the estimated intracellular concentration of radiolabel relative to the extracellular concentration were calculated as described. Uptake of radiolabeled hexose into HEK293 cells was measured in glucose-free HBSS as described previously. Briefly, cells were plated at 400,000 cells/well overnight at 37°C in 24-well plates pre-treated with PEI. After 30-min incubation at 37°C in glucose-free HBSS in the presence of vehicle or increasing concentrations of compound, 2-DG uptake was measured in glucose-free HBSS for 4 min at 37°C. Cultures were washed in ice-cold 1X PBS and lysed in 0.1% Triton X-100 in 1X PBS. Radiolabeled hexose uptake was determined by liquid scintillation counting (Ultima Gold, Thermo Fisher) and normalized to total protein per well. Uptake data are plotted as percent uptake relative to vehicle-treated cells. Kinetic analyses were performed using the indicated concentrations of substrate and WU-1, with quenching of uptake after 1 min incubation. Incubation times had been previously determined as being in the linear range of time-dependent radiolabeled hexose uptake (2 min for 2-DG uptake into freed parasites; 2 and 4 min for D-Frc and 2-DG uptake HEK cell lines, respectively). Data were fit by least squares nonlinear regression analysis using GraphPad Prism 6.0 software.

[1] = HEK293, 2 min, read-out: D-frc Uptake AVE

Compound: Cc1ccc(S(=O)(=O)CCNC(=O)c2c(-c3c(Cl)cccc3Cl)noc2C)cc1 [WU-1, 3-(2,6-dichlorophenyl)-5-methyl-N-[2-(4-methylbenzenesulfonyl)ethyl]-1,2-oxazole-4-carboxamide]
- IC50 (GLUT8, D-frc Uptake, average of Expt 1-3, read-out: AVE IC50): 22 µM
- IC50 (GLUT8, D-frc Uptake, single experiments Expt 1-3, read-out: IC50): 23.3 µM and 19.7 µM and 23.1 µM
- IC50 (GLUT8 cell line, read-out: IC50, D-fructose (Frc) uptake): 22 ± 1.2 µM
- remaining activity at 0.001 µM (HEK293, 2 min, GLUT8, concentration 0.001 µM, Expt 1-3, read-out: D-frc Uptake AVE): 100%
- remaining activity at 0.313 µM (HEK293, 2 min, GLUT8, concentration 0.313 µM, read-out: D-frc Uptake AVE): 96.4%
- remaining activity at 0.625 µM (HEK293, 2 min, GLUT8, concentration 0.625 µM, read-out: D-frc Uptake AVE): 90%
- remaining activity at 1.25 µM (HEK293, 2 min, GLUT8, concentration 1.250 µM, read-out: D-frc Uptake AVE): 89.1%
- remaining activity at 2.5 µM (HEK293, 2 min, GLUT8, concentration 2.500 µM, read-out: D-frc Uptake AVE): 86%
- remaining activity at 5 µM (HEK293, 2 min, GLUT8, concentration 5.0 µM, read-out: D-frc Uptake AVE): 78.5%
- remaining activity at 10 µM (HEK293, 2 min, GLUT8, concentration 10.0 µM, read-out: D-frc Uptake AVE): 71.4%
- remaining activity at 20 µM (HEK293, 2 min, GLUT8, concentration 20 µM, read-out: D-frc Uptake AVE): 53%
- remaining activity at 40 µM (HEK293, 2 min, GLUT8, concentration 40 µM, read-out: D-frc Uptake AVE): 46.1%
- remaining activity at 80 µM (HEK293, 2 min, GLUT8, concentration 80 µM, read-out: D-frc Uptake AVE): 30.5%
- remaining activity at 160 µM (HEK293, 2 min, GLUT8, concentration 160 µM, read-out: D-frc Uptake AVE): 24.8%
- remaining activity at 225 µM (HEK293, 2 min, GLUT8, concentration 225 µM, read-out: D-frc Uptake AVE): 22.6%
- remaining activity at 0.625 µM [1]: 91.6%
- remaining activity at 2.5 µM [1]: 84.6%
- Selectivity Index (PfHT over GLUT8), Frc (calculated from IC50s): 4.4

Reference: article PMC6508677, “Identification of druggable small molecule antagonists of the Plasmodium falciparum hexose transporter PfHT and assessment of ligand access to the glucose permeation pathway via FLAG-mediated protein engineering” (PLoS ONE, 2019)
